# Where two headings read alike, the source gives them in different places.
# Columns and labels:
# [1] = tested on: sarcoplasmic reticulum Ca^2+ release channel; details: cited from earlier work
# [2] = Redox activity by reaction with photo-excited dye under aerobic conditions (probe reduction at 470 nm and dye photo-bleaching); assay type: physicochemical; details: for redox activity (electron donor or electron acceptor): conclusion from the photo-excited dye assay of the respective example
# [3] = Reaction of NBD-Cl with KO2: stopped-flow kinetics, absorbance and fluorescence calibration; assay type: physicochemical
# [4] = molecular target: xanthine-xanthine oxidase reaction (Homo sapiens, UniProt P47989); assay: Superoxide measurement in the xanthine-xanthine oxidase reaction; assay type: biochemical
# Sequence of xanthine-xanthine oxidase reaction (P47989 whole entry): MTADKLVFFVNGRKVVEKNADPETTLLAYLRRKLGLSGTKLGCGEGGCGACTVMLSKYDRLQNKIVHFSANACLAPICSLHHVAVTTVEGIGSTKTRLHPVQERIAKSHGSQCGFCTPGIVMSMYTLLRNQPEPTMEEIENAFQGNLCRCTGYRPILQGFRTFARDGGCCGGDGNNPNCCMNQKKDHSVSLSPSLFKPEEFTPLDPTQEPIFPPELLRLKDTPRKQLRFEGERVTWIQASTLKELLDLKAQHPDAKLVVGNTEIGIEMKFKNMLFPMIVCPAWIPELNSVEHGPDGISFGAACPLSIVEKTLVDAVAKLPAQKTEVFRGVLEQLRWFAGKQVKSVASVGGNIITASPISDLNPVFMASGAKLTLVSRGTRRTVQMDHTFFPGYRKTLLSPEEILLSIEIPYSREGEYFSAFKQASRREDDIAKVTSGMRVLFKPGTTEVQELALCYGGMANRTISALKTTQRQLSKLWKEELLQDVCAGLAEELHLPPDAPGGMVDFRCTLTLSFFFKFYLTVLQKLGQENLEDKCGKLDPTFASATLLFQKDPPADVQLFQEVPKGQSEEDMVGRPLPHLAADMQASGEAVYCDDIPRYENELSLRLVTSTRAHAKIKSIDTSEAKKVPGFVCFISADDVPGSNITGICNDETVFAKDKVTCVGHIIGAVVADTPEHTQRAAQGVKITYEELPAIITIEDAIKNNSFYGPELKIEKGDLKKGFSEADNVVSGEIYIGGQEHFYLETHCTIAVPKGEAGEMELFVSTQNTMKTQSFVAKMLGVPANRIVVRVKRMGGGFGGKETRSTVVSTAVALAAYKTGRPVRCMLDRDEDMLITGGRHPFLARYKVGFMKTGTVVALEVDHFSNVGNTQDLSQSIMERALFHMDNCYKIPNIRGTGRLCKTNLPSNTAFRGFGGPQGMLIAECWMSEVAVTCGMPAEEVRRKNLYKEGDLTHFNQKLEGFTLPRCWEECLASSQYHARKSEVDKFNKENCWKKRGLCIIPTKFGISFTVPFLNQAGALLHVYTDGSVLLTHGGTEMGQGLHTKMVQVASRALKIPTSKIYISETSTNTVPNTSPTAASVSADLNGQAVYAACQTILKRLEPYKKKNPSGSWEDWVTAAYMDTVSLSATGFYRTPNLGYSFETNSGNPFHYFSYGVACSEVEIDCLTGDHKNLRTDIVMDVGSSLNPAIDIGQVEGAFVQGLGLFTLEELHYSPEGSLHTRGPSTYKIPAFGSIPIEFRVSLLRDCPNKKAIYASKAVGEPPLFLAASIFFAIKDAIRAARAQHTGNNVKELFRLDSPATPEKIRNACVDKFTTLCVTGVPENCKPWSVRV
# [5] = Redox activity of activators and inhibitors of membrane-bound transport proteins (overview statement); assay type: physicochemical; details: activators and inhibitors of the sarcoplasmic reticulum calcium release channel; no reference given
# [6] = modulators of L-type calcium channel, sodium channel, mitochondrial ATP-dependent potassium channel; references 1-3; cited from earlier work
# [7] = 10 μM methylene blue, 100 μM NADH, 50 μM NBD-Cl, 10 mM Tris-HCl in water, pH 7.4, doxorubicin 25 and 50 μM vs zero
# [8] = 10 μM erythrosin, 50 μM NBD-Cl, 80% dimethyl sulfoxide / 20% 1 mM Tris-HCl, pH 7.4, compound 200 μM (diethyl benzocaine 2 mM) vs control
Molecule,redox activity (electron donor or electron acceptor) [2],redox activity (electron donor or electron acceptor) [5],other results
ryanodine,,,concentrations at which it is a specific activator of the calcium release channel [1]: 1 to 2 µM
CC(C)COCC(CN(Cc1ccccc1)c1ccccc1)N1CCCC1 (stereo not shown) [bepridil],electron donor,,"rate of XTT reduction (increasing absorbance at 470 nm) ([2]; 10 μM eosin, 50 μM XTT, 1 mM Tris-HCl in water, pH 7.4, bepridil 20 and 200 μM vs zero): increased"
"2,3-bis(2-methoxy-4-nitro-5-sulphophenyl)-5-[(phenylamino)carbonyl]-2H-tetrazolium hydroxide [XTT]",,,second-order rate constants for reduction by superoxide [3]: 8.59±0.81×10^4 M^−1s^−1; effect of the probe on the xanthine-xanthine oxidase reaction rate [4]: about a two-fold increase; Superoxide at 470 nm (initial rate of superoxide formation) ([4]; pH 7.4): 0.225 ± 0.010
Oc1ccc(-c2[o+]c3cc(O)cc(O)c3cc2O)cc1 [pelargonidine],,,redox activity (electron donor or electron acceptor) [6]: electron acceptor
"COc1cc(-c2ccc(-n3nc(-c4ccccc4)n[n+]3-c3ccc([N+](=O)[O-])cc3)c(OC)c2)ccc1-n1nc(-c2ccccc2)n[n+]1-c1ccc([N+](=O)[O-])cc1 [NBT, nitroblue tetrazolium]",,,Superoxide at 550 nm (initial rate of superoxide formation) ([4]; pH 7.4): 0.038 ± 0.002
CC[C@H]1[C@@H]2C[C@H]3[C@@H]4N(C)c5ccccc5[C@]45C[C@@H]([C@@H]2[C@H]5O)N3[C@@H]1O [ajmalin],electron donors,,"rate of NBD-Cl reduction (increasing absorbance at 470 nm) [2, 8]: increased; relative degree of electron donor activity ([2]; 10 μM erythrosin, 50 μM NBD-Cl, 80% dimethyl sulfoxide, from level of increase of NBD-Cl reduction rate): stronger electron donor than diethyl benzocaine"
Cn1c(=O)c2c(ncn2C)n(C)c1=O [caffeine],,electron acceptors,
O=C1c2c(O)ccc(O)c2C(=O)c2c(NCCNCCO)ccc(NCCNCCO)c21 [mitoxantrone],,electron acceptors,

# Further lines, with some results ahead:
redox activity (electron donor or electron acceptor) [2],redox activity (electron donor or electron acceptor) [5],Molecule,other results
,electron donors,CCN(CC)CCOC(=O)c1ccc(N)cc1 [procaine],
,electron donors,N[C@@H](CCC(=O)N[C@@H](CS)C(=O)NCC(=O)O)C(=O)O [glutathione],
electron acceptor,electron acceptors,COc1cccc2c1C(=O)c1c(O)c3c(c(O)c1C2=O)C[C@@](O)(C(=O)CO)C[C@@H]3O[C@H]1C[C@H](N)[C@H](O)[C@H](C)O1 [doxorubicin],"rate of NBD-Cl reduction (increasing absorbance at 470 nm) [2, 7]: decreased; rate of methylene blue bleaching (decreasing absorbance at 663 nm) [2, 7]: decreased"
electron donors,electron donors,CCCCNc1ccc(C(=O)OCCN(C)C)cc1 [tetracaine],"rate of NBD-Cl reduction (increasing absorbance at 470 nm) [2, 8]: increased"
,electron acceptors,N[C@@H](CSSC[C@H](N)C(=O)O)C(=O)O [cystine],
,electron donors,N[C@@H](CS)C(=O)O [cysteine],
electron donors,,diethyl benzocaine,"rate of NBD-Cl reduction (increasing absorbance at 470 nm) [2, 8]: increased; redox activity (electron donor or electron acceptor) [6]: electron donor"
,electron acceptors,CN(C)C(=O)/N=N/C(=O)N(C)C [diamide],
